One assay deals with T1, GLP-1R (Homo sapiens, UniProt P43220).
T1 construct: expressed in transfected cells
The assay can be described thus: GLP-1 receptor-mediated cAMP production in vitro. It is filed as cell-based. The following applies: HEK293 cell line stably expressing GLP-1R. As to the method:
(§1) HEK293 cell line stably expressing GLP-1R or GCGR was used for screening GLP-1R and GCGR agonist.
(§2) Preparation of test sample: each compound was prepared into 100 μM stock solution, and then gradually diluted to working concentrations of 1 μM, 100 nM, 10 nM, 1 nM, 10^−1 nM, 10^−2 nM, 10^−3 nM, and H2O.
(§3) 1) Each compound to be tested was mixed with a serum-free medium (containing 0.1% BSA and 0.5 mM IBMX) to obtain a solution at a concentration 2 times the working concentration.
(§4) 2) The cells were digested, suspended in a serum-free medium (containing 0.5 mM IBMX), counted, and placed in a 384-well plate at a density of 1,000 cells/5 μL/well, then 5 μL of the testing compound was added, and the plate was placed in dark for reaction for 30 min.
(§5) 3) After the reaction was completed, a substrate for detecting cAMP was added, and the plate was placed in dark for reaction at the room temperature for 60 min.
(§6) 4) After the reaction was completed, the plate was placed on the Envision2104 multifunctional microplate reader for detection, and the ratio of optical density (OD) values at 665 nm and 615 nm were read out.
Background: Cyclic AMP is a second messenger, typically raised through Gs and lowered through Gi signalling.

Assay [1] relates to glucose loaded normal mice. Nature of the assay: Glucose loading test on normal mice after single administration. Format: in vivo, Kunming mice. The following applies: for Blood glucose reduction rate (%) / Blood glucose level after glucose loading: 30 nmol/kg single dose; for Blood glucose reduction rate (%): after glucose loading, versus model control group; for Blood glucose level after glucose loading: glucose 2.5 g/kg intragastric 60 min after administration, measured 30 min after loading; for Blood glucose level after glucose loading / Fasting blood glucose level: n=5; for Fasting blood glucose level: normal mice fasted 6 h, 30 nmol/kg group. As to the method:
The hypoglycemic action of each compound of Example 1 was assessed by a glucose loading test on normal mice after single administration.
Method: Kunming mice (male, with a weight of 20-22 g) were acclimated in a barrier environment animal room for 3 days, divided into a blank control group, a model control group, a positive control group, and test compound groups, 5 mice in each group, and fasted for 6 h. Saline was administered to each mouse in the blank control group and the model control group, the compounds and a positive control drug were respectively administered to each mouse in the test compound groups and the positive control group at a dose of 30 nmol/kg, and the positive control drug was semaglutide. 60 min after administration, glucose was intragastrically administered to each mouse in the model control group, the positive control group, and the test compound groups at a dose of 2.5 g/kg (0.01 mL·g^−1 weight), distilled water was administered to each mouse in the blank control group, and blood glucose levels were determined 30 min after glucose loading.

The next assay has as its target T2, GCGR (Homo sapiens, UniProt P47871).
T2 construct: expressed in transfected cells
Nature of the assay: GC receptor-mediated cAMP production in vitro. Format: cell-based. Particulars: HEK293 cell line stably expressing GCGR. The procedure:
as §1, §2, §3, §4, §5, §6

This note sets out measurements from patent US20230174608A1, “Polypeptide Derivative Having Dual Receptor Agonistic Action and Use Thereof” (TIANJIN INSTITUTE OF PHARMACEUTICAL RESEARCH CO., LTD., priority 2020, published 2023).

*1 amine or outer side, *2 acyl side, *3 side chain or, on linkers, in order; H or OH if unused. Where a SMILES comes first, the peptide text is derived from it. Side-chain parts run from the residue outwards. [ ]: non-standard residue; d: D form. The star is where a group is joined. γGlu = O=C(O)[C@H](CCC(=O)[*:2])N[*:1]; Palmitoyl = CCCCCCCCCCCCCCCC(=O)*; AEEA = NCCOCCOCC(=O)O; Aib = CC(C)(N)C(=O)O

T1 sequence (P43220 24-463, species assumed): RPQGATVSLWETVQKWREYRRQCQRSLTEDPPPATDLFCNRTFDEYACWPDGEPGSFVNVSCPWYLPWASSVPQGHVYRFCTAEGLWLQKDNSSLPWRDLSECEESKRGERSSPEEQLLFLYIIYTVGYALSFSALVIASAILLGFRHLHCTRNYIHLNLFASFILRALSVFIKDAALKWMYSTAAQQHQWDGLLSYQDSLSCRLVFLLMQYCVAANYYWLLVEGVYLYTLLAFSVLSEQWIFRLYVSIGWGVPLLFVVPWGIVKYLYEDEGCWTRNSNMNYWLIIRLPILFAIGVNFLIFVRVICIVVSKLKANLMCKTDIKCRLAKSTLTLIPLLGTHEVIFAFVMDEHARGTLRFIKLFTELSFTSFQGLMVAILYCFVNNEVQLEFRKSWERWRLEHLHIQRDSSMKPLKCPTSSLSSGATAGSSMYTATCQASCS
T2 sequence (P47871 26-477, species assumed): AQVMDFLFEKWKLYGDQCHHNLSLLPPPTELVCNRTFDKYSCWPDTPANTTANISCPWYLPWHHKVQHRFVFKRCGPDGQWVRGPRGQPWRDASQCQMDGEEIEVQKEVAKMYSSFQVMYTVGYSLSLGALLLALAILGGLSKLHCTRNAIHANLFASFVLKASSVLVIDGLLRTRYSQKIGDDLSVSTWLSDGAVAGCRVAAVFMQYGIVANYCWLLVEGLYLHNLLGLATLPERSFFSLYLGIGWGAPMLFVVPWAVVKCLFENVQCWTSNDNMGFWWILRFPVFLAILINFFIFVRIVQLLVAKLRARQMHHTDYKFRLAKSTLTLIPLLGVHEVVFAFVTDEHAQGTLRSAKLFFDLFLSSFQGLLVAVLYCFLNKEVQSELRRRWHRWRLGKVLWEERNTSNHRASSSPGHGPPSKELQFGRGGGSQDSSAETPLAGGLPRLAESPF

For orientation: EC50 means the midpoint of the concentration-response curve. In the case of `CCCCCCCCCCCCCCCC(=O)N[C@@H](CCC(=O)NCCCC[C@H](NC(=O)[C@H](C)NC(=O)[C@H](C)NC(=O)[C@H](CCCNC(=N)N)NC(=O)[C@H](CCC(=O)O)NC(=O)[C@H](CCC(=O)O)NC(=O)[C@H](CC(C)C)NC(=O)[C@H](Cc1ccc(O)cc1)NC(=O)[C@H](CCCCN)NC(=O)[C@H](CO)NC(=O)[C@H](Cc1ccc(O)cc1)NC(=O)[C@H](CC(=O)O)NC(=O)[C@H](CO)NC(=O)[C@@H](NC(=O)[C@H](Cc1ccccc1)NC(=O)[C@@H](NC(=O)CNC(=O)[C@H](CCC(N)=O)NC(=O)C(C)(C)NC(=O)[C@@H](N)Cc1c[nH]cn1)[C@@H](C)O)[C@@H](C)O)C(=O)N[C@@H](CCC(=O)O)C(=O)N[C@@H](Cc1ccccc1)C(=O)N[C@H](C(=O)N[C@@H](C)C(=O)N[C@@H](Cc1c[nH]c2ccccc12)C(=O)N[C@@H](CC(C)C)C(=O)N[C@@H](CCC(=O)O)C(=O)N[C@@H](CO)C(=O)NCC(=O)NCC(N)=O)[C@@H](C)CC)C(=O)O` [dgc008] (HELM PEPTIDE1{H.[Aib].Q.G.T.F.T.S.D.Y.S.K.Y.L.E.E.R.A.A.K.E.F.I.A.W.L.E.S.G.G.[am]}|PEPTIDE2{[CCCCCCCCCCCCCCCC(=O)[*:2]].[gGlu]}$PEPTIDE1,PEPTIDE2,20:R3-2:R2$$$V2.0; N-terminus assumed), the EC50 on GLP-1R worked out at 0.742 nM. In addition, in assay [1], the “Blood glucose reduction rate (%)” value is 48.70%, the “Blood glucose level after glucose loading” value is 8.72 ± 1.99 mmol/L and the “Fasting blood glucose level” value is 3.64 ± 1.00 mmol/L. The compound also showed an EC50 at GCGR of 2.03 nM.
`CCCCCCCCCCCCCCCC(=O)N[C@@H](CCC(=O)N[C@@H](CCC(=O)NCCCC[C@H](NC(=O)[C@H](C)NC(=O)[C@H](C)NC(=O)[C@H](CCCNC(=N)N)NC(=O)[C@H](CCC(=O)O)NC(=O)[C@H](CC(=O)O)NC(=O)[C@H](CC(C)C)NC(=O)[C@H](Cc1ccc(O)cc1)NC(=O)[C@H](CCCCN)NC(=O)[C@H](CO)NC(=O)[C@H](Cc1ccc(O)cc1)NC(=O)[C@H](CC(=O)O)NC(=O)[C@H](CO)NC(=O)[C@@H](NC(=O)[C@H](Cc1ccccc1)NC(=O)[C@@H](NC(=O)CNC(=O)[C@H](CCC(N)=O)NC(=O)C(C)(C)NC(=O)[C@@H](N)Cc1c[nH]cn1)[C@@H](C)O)[C@@H](C)O)C(=O)N[C@@H](CCC(=O)O)C(=O)N[C@@H](Cc1ccccc1)C(=O)N[C@H](C(=O)N[C@@H](C)C(=O)N[C@@H](Cc1c[nH]c2ccccc12)C(=O)N[C@@H](CC(C)C)C(=O)N[C@@H](CCC(=O)O)C(=O)NCC(=O)NCC(N)=O)[C@@H](C)CC)C(=O)O)C(=O)O` [dgc013] (HELM PEPTIDE1{H.[Aib].Q.G.T.F.T.S.D.Y.S.K.Y.L.D.E.R.A.A.K.E.F.I.A.W.L.E.G.G.[am]}|PEPTIDE2{[CCCCCCCCCCCCCCCC(=O)[*:2]].[gGlu].[gGlu]}$PEPTIDE1,PEPTIDE2,20:R3-3:R2$$$V2.0; N-terminus assumed) came in with an EC50 at GLP-1R of 0.319 nM. Further, in assay [1], the “Blood glucose reduction rate (%)” value worked out at 45.53%, the “Blood glucose level after glucose loading” value is given as 9.26 ± 1.76 mmol/L and the “Fasting blood glucose level” value came to 3.92 ± 0.51 mmol/L. This compound registered an EC50 at GCGR of 1.99 nM.
For `CCCCCCCCCCCCCCCC(=O)N[C@@H](CCC(=O)NCCCC[C@H](NC(=O)[C@H](C)NC(=O)[C@H](C)NC(=O)[C@H](CCCNC(=N)N)NC(=O)[C@H](CCC(=O)O)NC(=O)[C@H](CCC(=O)O)NC(=O)[C@H](CC(C)C)NC(=O)[C@H](Cc1ccc(O)cc1)NC(=O)[C@H](CCCCN)NC(=O)[C@H](CO)NC(=O)[C@H](Cc1ccc(O)cc1)NC(=O)[C@H](CC(=O)O)NC(=O)[C@H](CO)NC(=O)[C@@H](NC(=O)[C@H](Cc1ccccc1)NC(=O)[C@@H](NC(=O)CNC(=O)[C@H](CCC(N)=O)NC(=O)C(C)(C)NC(=O)[C@@H](N)Cc1c[nH]cn1)[C@@H](C)O)[C@@H](C)O)C(=O)N[C@@H](CCC(=O)O)C(=O)N[C@@H](Cc1ccccc1)C(=O)N[C@H](C(=O)N[C@@H](C)C(=O)N[C@@H](Cc1c[nH]c2ccccc12)C(=O)N[C@@H](CC(C)C)C(=O)N[C@@H](CCC(=O)O)C(=O)NCC(=O)NCC(N)=O)[C@@H](C)CC)C(=O)O` [dgc015] (HELM PEPTIDE1{H.[Aib].Q.G.T.F.T.S.D.Y.S.K.Y.L.E.E.R.A.A.K.E.F.I.A.W.L.E.G.G.[am]}|PEPTIDE2{[CCCCCCCCCCCCCCCC(=O)[*:2]].[gGlu]}$PEPTIDE1,PEPTIDE2,20:R3-2:R2$$$V2.0; N-terminus assumed), the EC50 turned out to be 0.899 nM at GLP-1R and 1.53 nM at GCGR.
`CCCCCCCCCCCCCCCC(=O)N[C@@H](CCC(=O)NCCCC[C@H](NC(=O)[C@H](C)NC(=O)[C@H](C)NC(=O)[C@H](CCCNC(=N)N)NC(=O)[C@H](CCC(=O)O)NC(=O)[C@H](CC(=O)O)NC(=O)[C@H](CC(C)C)NC(=O)[C@H](Cc1ccc(O)cc1)NC(=O)[C@H](CCCCN)NC(=O)[C@H](CO)NC(=O)[C@H](Cc1ccc(O)cc1)NC(=O)[C@H](CC(=O)O)NC(=O)[C@H](CO)NC(=O)[C@@H](NC(=O)[C@H](Cc1ccccc1)NC(=O)[C@@H](NC(=O)CNC(=O)[C@H](CCC(N)=O)NC(=O)C(C)(C)NC(=O)[C@@H](N)Cc1c[nH]cn1)[C@@H](C)O)[C@@H](C)O)C(=O)N[C@@H](CCC(=O)O)C(=O)N[C@@H](Cc1ccccc1)C(=O)N[C@H](C(=O)N[C@@H](C)C(=O)N[C@@H](Cc1c[nH]c2ccccc12)C(=O)N[C@@H](CC(C)C)C(=O)N[C@@H](CCC(=O)O)C(=O)NCC(=O)N[C@@H](CCC(=O)O)C(=O)NCC(N)=O)[C@@H](C)CC)C(=O)O` [dgc018] (HELM PEPTIDE1{H.[Aib].Q.G.T.F.T.S.D.Y.S.K.Y.L.D.E.R.A.A.K.E.F.I.A.W.L.E.G.E.G.[am]}|PEPTIDE2{[CCCCCCCCCCCCCCCC(=O)[*:2]].[gGlu]}$PEPTIDE1,PEPTIDE2,20:R3-2:R2$$$V2.0; N-terminus assumed): the EC50 at GLP-1R amounted to 0.401 nM; on GCGR it was 1.3 nM.
Turning to `CCCCCCCCCCCCCCCC(=O)N[C@@H](CCC(=O)NCCCC[C@H](NC(=O)[C@H](C)NC(=O)[C@H](C)NC(=O)[C@H](CCCNC(=N)N)NC(=O)[C@H](CCC(=O)O)NC(=O)[C@H](CCC(=O)O)NC(=O)[C@H](CC(C)C)NC(=O)[C@H](Cc1ccc(O)cc1)NC(=O)[C@H](CCCCN)NC(=O)[C@H](CO)NC(=O)[C@H](Cc1ccc(O)cc1)NC(=O)[C@H](CC(=O)O)NC(=O)[C@H](CO)NC(=O)[C@@H](NC(=O)[C@H](Cc1ccccc1)NC(=O)[C@@H](NC(=O)CNC(=O)[C@H](CCC(N)=O)NC(=O)C(C)(C)NC(=O)[C@@H](N)Cc1c[nH]cn1)[C@@H](C)O)[C@@H](C)O)C(=O)N[C@@H](CCC(=O)O)C(=O)N[C@@H](Cc1ccccc1)C(=O)N[C@H](C(=O)N[C@@H](C)C(=O)N[C@@H](Cc1c[nH]c2ccccc12)C(=O)N[C@@H](CC(C)C)C(=O)N[C@@H](CCC(=O)O)C(=O)NCC(=O)N[C@@H](CCC(=O)O)C(=O)NCC(N)=O)[C@@H](C)CC)C(=O)O` [dgc019] (HELM PEPTIDE1{H.[Aib].Q.G.T.F.T.S.D.Y.S.K.Y.L.E.E.R.A.A.K.E.F.I.A.W.L.E.G.E.G.[am]}|PEPTIDE2{[CCCCCCCCCCCCCCCC(=O)[*:2]].[gGlu]}$PEPTIDE1,PEPTIDE2,20:R3-2:R2$$$V2.0; N-terminus assumed), the EC50 on GLP-1R was determined as 0.792 nM; at GCGR it was 1.83 nM.
Regarding `CCCCCCCCCCCCCCCC(=O)N[C@@H](CCC(=O)NCCOCCOCC(=O)NCCOCCOCC(=O)NCCCC[C@H](NC(=O)[C@H](C)NC(=O)[C@H](C)NC(=O)[C@H](CCCNC(=N)N)NC(=O)[C@H](CCC(=O)O)NC(=O)[C@H](CCC(=O)O)NC(=O)[C@H](CC(C)C)NC(=O)[C@H](Cc1ccc(O)cc1)NC(=O)[C@H](CCCCN)NC(=O)[C@H](CO)NC(=O)[C@H](Cc1ccc(O)cc1)NC(=O)[C@H](CC(=O)O)NC(=O)[C@H](CO)NC(=O)[C@@H](NC(=O)[C@H](Cc1ccccc1)NC(=O)[C@@H](NC(=O)CNC(=O)[C@H](CCC(N)=O)NC(=O)C(C)(C)NC(=O)[C@@H](N)Cc1c[nH]cn1)[C@@H](C)O)[C@@H](C)O)C(=O)N[C@@H](CCC(=O)O)C(=O)N[C@@H](Cc1ccccc1)C(=O)N[C@H](C(=O)N[C@@H](C)C(=O)N[C@@H](Cc1c[nH]c2ccccc12)C(=O)N[C@@H](CC(C)C)C(=O)N[C@@H](CCC(=O)O)C(=O)NCC(=O)N[C@@H](CCC(=O)O)C(=O)NCC(N)=O)[C@@H](C)CC)C(=O)O` [dgc021] (H-H[Aib]QGTFTSDYSKYLEERAAK([AEEA-AEEA-γGlu-Palmitoyl])EFIAWLEGEG-NH2; N-terminus assumed), the EC50 was found to be 0.382 nM on GLP-1R and 3.93 nM on GCGR.
